The subject of this test is human NKT cells. Briefly: XCL1 secretion from human NKT cells (ELISA). It is filed as cell-based. The note with it: human NKT cell, FIG. 18. Here is the method:
Briefly, to generate human NKT cells the buffy coats from human donors' peripheral blood were obtained from RESEARCH BLOOD COMPONENTS LLC and separated using differential centrifugation on a FICOLL density gradient. Magnetically Isolated CD14^neg cells were cultured with 10 U/ml rhIL-2 for 5 days. Then, Vα24^+ hNKT cells were magnetically isolated and incubated for 2 days with mitomycin C-treated human dendritic cells loaded with α-galactosylceramide (α-GalCer)+20 U/ml rhIL-2. Then, the cells were harvested and further expanded for 10 days in complete RPMI medium+20 U/ml rhIL-2, with medium replacement every 2 days. Finally, the purity of Vα24Jα18^+ CD3^+ human NKT cells was estimated using flow cytometry (˜99%) and cells were frozen in complete RPMI medium+10% dimethyl sulfoxide (DMSO) at 5×10^6 cells per vial. For assaying the effect of M. schaedleri supernatant on human NKT cells, frozen cells were thawed and cultured in complete RPMI medium+rhIL-2 at cell density of 200,000 cells per well in a 96-well plate. The cells were treated with either sterile mBHI or M. schaedleri CDM at 20% volume per volume (v/v) for 16 h and then the culture supernatant was collected. As a positive control for activation, anti-human CD3 was used to stimulate the NKT cells. XCL1 concentration was measured using ONESTEP HUMAN XCL1 ELISA (ABCAM) according to the manufacturer's instructions. […]
(In general: An ELISA detects its analyte on a solid surface through an enzyme-linked reagent.)

SMILES strings stand for the structures.

On to `O=C(O)c1cccnc1` [Pool 3, nicotinic acid], for which the “NKT XCL1 production, metabolite pools” value is recorded as “activity above that of the medium control”.
